Like-named read-outs stand apart in the source and are kept apart here.
Molecular target: ATR kinase (full-length ATR) (Homo sapiens (Human), UniProt Q13535)
Assay: ATR inhibition assay (radioactive-phosphate incorporation)
Assay type: biochemical
Method in brief: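 Radiometric 33P incorporation by 5 nM full-length ATR into 800 μM target peptide with 10 μM [γ-33P]ATP, in 50 mM Tris/HCl pH 7.5, 10 mM MgCl2, 1 mM DTT, 7% DMSO, 25° C. Compound pre-incubated 10 minutes; reaction stopped after 24 hours, captured on phosphocellulose. Ki(app) from non-linear regression of initial rates.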

[1] = Ki(app), 5 nM full-length ATR, 10 μM ATP, 25° C.

Sequence of ATR kinase (full-length ATR) (Q13535 whole entry): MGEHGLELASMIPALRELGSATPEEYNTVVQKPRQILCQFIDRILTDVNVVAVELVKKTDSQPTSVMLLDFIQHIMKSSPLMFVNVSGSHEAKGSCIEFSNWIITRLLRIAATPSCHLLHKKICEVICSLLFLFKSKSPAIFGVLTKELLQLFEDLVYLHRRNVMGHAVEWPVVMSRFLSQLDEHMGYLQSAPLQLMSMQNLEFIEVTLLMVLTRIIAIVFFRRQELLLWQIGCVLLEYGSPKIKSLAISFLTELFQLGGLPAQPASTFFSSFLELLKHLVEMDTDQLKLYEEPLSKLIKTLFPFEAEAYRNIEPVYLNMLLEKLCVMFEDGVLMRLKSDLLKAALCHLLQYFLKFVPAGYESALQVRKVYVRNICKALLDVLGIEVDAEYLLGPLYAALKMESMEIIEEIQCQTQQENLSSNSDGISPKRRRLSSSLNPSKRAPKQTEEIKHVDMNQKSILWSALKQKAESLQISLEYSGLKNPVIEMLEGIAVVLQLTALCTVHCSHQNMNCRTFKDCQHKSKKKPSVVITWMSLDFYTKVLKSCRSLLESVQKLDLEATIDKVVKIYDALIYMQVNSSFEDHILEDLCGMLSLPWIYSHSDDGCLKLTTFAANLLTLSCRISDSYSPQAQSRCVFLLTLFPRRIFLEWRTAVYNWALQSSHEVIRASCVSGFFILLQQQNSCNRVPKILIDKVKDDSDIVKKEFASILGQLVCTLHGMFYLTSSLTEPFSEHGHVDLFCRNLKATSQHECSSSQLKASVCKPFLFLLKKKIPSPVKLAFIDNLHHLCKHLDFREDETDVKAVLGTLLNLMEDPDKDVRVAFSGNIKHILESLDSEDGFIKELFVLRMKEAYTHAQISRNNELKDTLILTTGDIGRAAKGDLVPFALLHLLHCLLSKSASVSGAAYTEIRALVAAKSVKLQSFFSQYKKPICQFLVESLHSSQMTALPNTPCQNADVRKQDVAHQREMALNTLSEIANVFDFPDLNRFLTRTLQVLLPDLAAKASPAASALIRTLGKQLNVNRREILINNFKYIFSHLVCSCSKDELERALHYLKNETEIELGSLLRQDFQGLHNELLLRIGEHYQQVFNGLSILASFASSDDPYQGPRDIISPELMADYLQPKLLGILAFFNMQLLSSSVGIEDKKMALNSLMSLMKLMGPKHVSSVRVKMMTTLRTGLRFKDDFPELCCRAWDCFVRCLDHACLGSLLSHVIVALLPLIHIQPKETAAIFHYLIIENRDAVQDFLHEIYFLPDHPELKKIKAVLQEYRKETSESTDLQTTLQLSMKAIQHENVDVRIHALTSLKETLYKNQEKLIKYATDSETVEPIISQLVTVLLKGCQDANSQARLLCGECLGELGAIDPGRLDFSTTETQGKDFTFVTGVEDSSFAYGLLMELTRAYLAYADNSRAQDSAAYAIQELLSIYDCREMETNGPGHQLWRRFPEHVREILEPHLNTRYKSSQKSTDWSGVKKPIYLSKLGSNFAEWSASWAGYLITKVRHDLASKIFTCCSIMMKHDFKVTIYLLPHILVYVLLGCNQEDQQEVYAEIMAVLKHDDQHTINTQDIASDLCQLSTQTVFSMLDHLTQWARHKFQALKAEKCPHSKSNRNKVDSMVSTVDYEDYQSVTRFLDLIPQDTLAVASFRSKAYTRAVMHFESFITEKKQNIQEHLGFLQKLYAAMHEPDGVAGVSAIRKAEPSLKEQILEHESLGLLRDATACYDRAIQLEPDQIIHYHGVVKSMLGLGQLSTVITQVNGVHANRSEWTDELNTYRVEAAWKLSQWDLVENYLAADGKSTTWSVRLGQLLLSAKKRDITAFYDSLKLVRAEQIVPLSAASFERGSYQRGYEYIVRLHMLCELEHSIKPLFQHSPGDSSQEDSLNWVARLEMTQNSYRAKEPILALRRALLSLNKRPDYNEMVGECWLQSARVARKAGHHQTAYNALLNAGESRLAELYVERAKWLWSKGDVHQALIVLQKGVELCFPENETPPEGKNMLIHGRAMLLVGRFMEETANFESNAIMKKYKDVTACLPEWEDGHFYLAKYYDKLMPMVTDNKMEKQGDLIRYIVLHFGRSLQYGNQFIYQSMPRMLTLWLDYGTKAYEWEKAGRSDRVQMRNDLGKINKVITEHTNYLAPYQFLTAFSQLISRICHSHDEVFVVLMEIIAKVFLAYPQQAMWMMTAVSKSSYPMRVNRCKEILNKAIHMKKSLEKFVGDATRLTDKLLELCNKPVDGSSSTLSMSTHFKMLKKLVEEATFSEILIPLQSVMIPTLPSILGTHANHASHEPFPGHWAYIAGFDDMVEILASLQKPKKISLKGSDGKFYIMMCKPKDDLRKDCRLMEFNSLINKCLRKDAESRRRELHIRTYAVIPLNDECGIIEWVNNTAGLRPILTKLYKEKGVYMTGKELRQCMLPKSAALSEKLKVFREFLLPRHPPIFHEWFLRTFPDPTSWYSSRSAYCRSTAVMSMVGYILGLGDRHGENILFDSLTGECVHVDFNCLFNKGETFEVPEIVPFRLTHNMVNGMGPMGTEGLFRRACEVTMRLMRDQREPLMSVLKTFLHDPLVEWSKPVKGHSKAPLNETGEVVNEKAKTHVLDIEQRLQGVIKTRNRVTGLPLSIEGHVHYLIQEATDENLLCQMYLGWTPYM

## N#CCc1cnc2c(C(=O)Nc3cnccc3N3CCOC(CN)C3)c(N)nn2c1 (centres unmarked) [I-N-90, 2-amino-N-(4-(2-(aminomethyl)morpholino)pyridin-3-yl)-6-(cyanomethyl)pyrazolo[1,5-a]pyrimidine-3-carboxamide]
[1]
  Ki: 0.01 to 1 µM

## CC(=O)N1CCCC12CCN(c1ccncc1NC(=O)c1c(N)nn3cc(F)cnc13)CC2 [I-N-262, N-(4-(1-acetyl-1,8-diazaspiro[4.5]decan-8-yl)pyridin-3-yl)-2-amino-6-fluoropyrazolo[1,5-a]pyrimidine-3-carboxamide]
[1]
  Ki: 0.01 to 1 µM

## N#CCc1cnc2c(C(=O)Nc3cnccc3OCC3CC3)c(N)nn2c1 [I-O-32, 2-amino-6-(cyanomethyl)-N-(4-(cyclopropylmethoxy)pyridin-3-yl)pyrazolo[1,5-a]pyrimidine-3-carboxamide]
[1]
  Ki: < 0.01 µM

## Nc1nn2cc(Cl)cnc2c1C(=O)Nc1cnccc1N1CCn2ccnc2C1 [I-N-44, 2-amino-6-chloro-N-(4-(5,6-dihydroimidazo[1,2-a]pyrazin-7(8H)-yl)pyridin-3-yl)pyrazolo[1,5-a]pyrimidine-3-carboxamide]
[1]
  Ki: 0.01 to 1 µM

## CS(=O)(=O)C1CCN(c2c(F)cncc2NC(=O)c2c(N)nn3cc(F)cnc23)CC1 [I-N-165, 2-amino-6-fluoro-N-(5-fluoro-4-(4-(methylsulfonyl)piperidin-1-yl)pyridin-3-yl)pyrazolo[1,5-a]pyrimidine-3-carboxamide]
[1]
  Ki: 0.01 to 1 µM

## Nc1nn2cc(F)cnc2c1C(=O)Nc1cnccc1O[C@H]1CN2CCC1CC2 [I-O-5, (R)-2-amino-6-fluoro-N-(4-(quinuclidin-3-yloxy)pyridin-3-yl)pyrazolo[1,5-a]pyrimidine-3-carboxamide]
[1]
  Ki: 0.01 to 1 µM

## Nc1nn2cc(F)cnc2c1C(=O)Nc1cnccc1N1CCC2(CC1)COC2 [I-N-226, N-(4-(2-oxa-7-azaspiro[3.5]nonan-7-yl)pyridin-3-yl)-2-amino-6-fluoropyrazolo[1,5-a]pyrimidine-3-carboxamide]
[1]
  Ki: 0.01 to 1 µM

## N#C[C@@H]1CCN(c2c(Cl)cncc2NC(=O)c2c(N)nn3cc(F)cnc23)C1 [I-N-285, (R)-2-amino-N-(5-chloro-4-(3-cyanopyrrolidin-1-yl)pyridin-3-yl)-6-fluoropyrazolo[1,5-a]pyrimidine-3-carboxamide]
[1]
  Ki: 0.01 to 1 µM

## COC1CN(C(=O)C2CCN(c3ccncc3NC(=O)c3c(N)nn4cc(F)cnc34)CC2)C1 [I-G-78, 2-amino-6-fluoro-N-(4-(4-(3-methoxyazetidine-1-carbonyl)piperidin-1-yl)pyridin-3-yl)pyrazolo[1,5-a]pyrimidine-3-carboxamide]
[1]
  Ki: 0.01 to 1 µM

## Nc1nn2cc(Cl)cnc2c1C(=O)Nc1cnccc1N1CCC(N2CCCC2)CC1 [I-N-105, 2-amino-6-chloro-N-(4-(4-(pyrrolidin-1-yl)piperidin-1-yl)pyridin-3-yl)pyrazolo[1,5-a]pyrimidine-3-carboxamide]
[1]
  Ki: 0.01 to 1 µM

## CCN1CCCC1C(=O)N1CCN(c2c(F)cncc2NC(=O)c2c(N)nn3cc(F)cnc23)CC1 (centres unmarked) [I-N-185, 2-amino-N-(4-(4-(1-ethylpyrrolidine-2-carbonyl)piperazin-1-yl)-5-fluoropyridin-3-yl)-6-fluoropyrazolo[1,5-a]pyrimidine-3-carboxamide]
[1]
  Ki: 0.01 to 1 µM

## CN1CCN(c2cc(Cl)ncc2NC(=O)c2c(N)nn3cc(Cl)cnc23)CC1 [I-N-52, 2-amino-6-chloro-N-(6-chloro-4-(4-methylpiperazin-1-yl)pyridin-3-yl)pyrazolo[1,5-a]pyrimidine-3-carboxamide]
  Ki: 1 to 5 µM

## CN1CCN(c2ccncc2NC(=O)c2c(N)nn3cc(Cl)cnc23)CC1 [I-N-59, 2-amino-6-chloro-N-(4-(4-methylpiperazin-1-yl)pyridin-3-yl)pyrazolo[1,5-a]pyrimidine-3-carboxamide]
[1]
  Ki: 0.01 to 1 µM

## Nc1nn2cc(F)cnc2c1C(=O)Nc1cncc(F)c1N1CCC2(CC1)COC2 [I-N-239, 2-amino-6-fluoro-N-(5-fluoro-4-(2-oxa-7-azaspiro[3.5]nonan-7-yl)pyridin-3-yl)pyrazolo[1,5-a]pyrimidine-3-carboxamide]
[1]
  Ki: 0.01 to 1 µM

## COC1CCN(c2ccncc2NC(=O)c2c(N)nn3cc(Cl)cnc23)CC1 [I-N-73, 2-amino-6-chloro-N-(4-(4-methoxypiperidin-1-yl)pyridin-3-yl)pyrazolo[1,5-a]pyrimidine-3-carboxamide]
[1]
  Ki: 0.01 to 1 µM

## CN1CCN(C(=O)C2(C)CCN(c3c(F)cncc3NC(=O)c3c(N)nn4cc(F)cnc34)CC2)CC1 [I-G-54, 2-amino-6-fluoro-N-(5-fluoro-4-(4-methyl-4-(4-methylpiperazine-1-carbonyl)piperidin-1-yl)pyridin-3-yl)pyrazolo[1,5-a]pyrimidine-3-carboxamide]
[1]
  Ki: 0.01 to 1 µM

## CO[C@H]1CCN(C(=O)C2CCN(c3ccncc3NC(=O)c3c(N)nn4cc(F)cnc34)CC2)C1 [I-G-94, (S)-2-amino-6-fluoro-N-(4-(4-(3-methoxypyrrolidine-1-carbonyl)piperidin-1-yl)pyridin-3-yl)pyrazolo[1,5-a]pyrimidine-3-carboxamide]
[1]
  Ki: 0.01 to 1 µM

## CC(C#N)c1cnc2c(C(=O)Nc3cncc(F)c3N3CCN(C4COC4)CC3)c(N)nn2c1 (centres unmarked) [I-N-145]
[1]
  Ki: 0.01 to 1 µM

## CN1CCC(Oc2c(Cl)cncc2NC(=O)c2c(N)nn3cc(Cl)cnc23)CC1 [I-O-46, 2-amino-6-chloro-N-(5-chloro-4-((1-methylpiperidin-4-yl)oxy)pyridin-3-yl)pyrazolo[1,5-a]pyrimidine-3-carboxamide]
  Ki: 1 to 5 µM

## N#CCc1cnc2c(C(=O)Nc3cnccc3OC3CCCC3)c(N)nn2c1 [I-O-43, 2-amino-6-(cyanomethyl)-N-(4-(cyclopentyloxy)pyridin-3-yl)pyrazolo[1,5-a]pyrimidine-3-carboxamide]
[1]
  Ki: < 0.01 µM

## COCCOc1ccncc1NC(=O)c1c(N)nn2cc(Cl)cnc12 [I-O-55, 2-amino-6-chloro-N-(4-(2-methoxyethoxy)pyridin-3-yl)pyrazolo[1,5-a]pyrimidine-3-carboxamide]
[1]
  Ki: 0.01 to 1 µM

## Nc1nn2cc(F)cnc2c1C(=O)Nc1cnccc1O[C@@H]1CN2CCC1CC2 [I-O-10, (S)-2-amino-6-fluoro-N-(4-(quinuclidin-3-yloxy)pyridin-3-yl)pyrazolo[1,5-a]pyrimidine-3-carboxamide]
[1]
  Ki: 0.01 to 1 µM

## Nc1nn2cc(F)cnc2c1C(=O)Nc1cncc(F)c1N1CCN2CCOC[C@@H]2C1 [I-N-137, (S)-2-amino-6-fluoro-N-(5-fluoro-4-(hexahydropyrazino[2,1-c][1,4]oxazin-8(1H)-yl)pyridin-3-yl)pyrazolo[1,5-a]pyrimidine-3-carboxamide]
[1]
  Ki: 0.01 to 1 µM

## Nc1nn2cc(F)cnc2c1C(=O)Nc1cncc(F)c1N1CCC(C(=O)N2CCN3CCC2C3)CC1 (centres unmarked) [I-G-46, N-(4-(4-(1,4-diazabicyclo[3.2.1]octane-4-carbonyl)piperidin-1-yl)-5-fluoropyridin-3-yl)-2-amino-6-fluoropyrazolo[1,5-a]pyrimidine-3-carboxamide]
  Ki: 1 to 5 µM

## Cc1ccncc1NC(=O)c1c(N)nn2cc(Cl)cnc12 [I-C-2, 2-amino-6-chloro-N-(4-methylpyridin-3-yl)pyrazolo[1,5-a]pyrimidine-3-carboxamide]
  Ki: 1 to 5 µM

## Nc1nn2cc(Cl)cnc2c1C(=O)Nc1cnccc1N1CCC(N2CC[S+]([O-])CC2)CC1 [I-N-100, 2-amino-6-chloro-N-(4-(4-(1-oxidothiomorpholino)piperidin-1-yl)pyridin-3-yl)pyrazolo[1,5-a]pyrimidine-3-carboxamide]
[1]
  Ki: 0.01 to 1 µM
